According to US6982246B1, “Cytomodulating peptide for inhibiting lymphocyte activity” (SangStat Medical Corporation, priority 1995, dated 2006):
Entries after “also recorded” stand apart in the source; their conditions may differ. Ends that are not written are not given here. * marks the point of attachment. Biotin = O=C1N[C@H]2[C@H](CS[C@H]2CCCCC(=O)*)N1

Experiments:
[1] = tested on: anti-CD3 stimulation of CBA spleen cells; assay: Anti-CD3 stimulation ([3H]-TdR incorporation); assay type: cell-based, mouse; conditions: for inhibition of anti-CD3 stimulation: result in words
Experimental: Anti-CD3 Stimulation and Mixed Lymphocyte Culture. Spleen cells isolated from CBA mice were stimulated (2×10^5/well) with anti-CD3 monoclonal antibody (Pharmingen, San Diego) at a final concentration of 0.1 to 1 μg/ml in 96-well, round-bottom microculture plates (Nunc, Denmark). Peptides at various concentrations were added at the beginning of the culture. Cells were incubated for a period of 3 days at 37° C., 5% CO2. Twenty-four hours before harvesting 1 μCi[^3H]-TdR (Amersham, Arlington Heights, Ill.) was added to individual wells. Cells were then harvested using a Filtermate 196 Harvester (Packard, Downers Grove, Ill.) and the degree of thymidine incorporation was measured using a TopCount Microplate Scintillation Counter (Packard). For MLR, CBA spleen cells were used as responders and B6 spleen cells as stimulators. B6 spleen cells were pre- treated with mitomycin-C (Calbiochem, La Jolla, Calif.) at 0.5 mg/ml for 20 min at 36° C. Cells were then washed three times to remove excess mitomycin-C. CBA spleen cells (2×10^5/well) were cultured with an equal number of mitomycin C-treated B6 cells in serum-free Aim V medium for periods of 3 to 6 days. One microcurie of [^3H]-TdR was added to the culture 24 hour before cell harvesting and the degree of thymidine incorporation was quantified as described above.

[2] = tested on: CTL activity (CBA to B6 effector cells, EL4 target cells); assay: Cytotoxic T cell activity (51Cr release); assay type: cell-based, mouse; conditions: for inhibition of CTL activity: result in words
Experimental: Cytotoxic T Cell Activity. To assay the effect of peptides on cytotoxic T cell activity, CBA to B6 effector cells were prepared following a 6-day culture of 4×10^6 CBA spleen cells with 5×10^6 mitomycin-treated B6 spleen cells in wells of a 24 well plate (Nuncion Delta, Nunc, Denmark) in RPMI-1640 with 10% FBS. Effector cells were then harvested and washed. EL4 (H-2^b), a mouse lymphoma induced in C57BL/6N was used as target cells. Cultured EL4 cells were maintained and sub-cultured once every three days […] Effector (E) and target (T) cells were then added into V-shaped tissue culture plates (Nunc, Denmark) at E:T ratios of 3:1, 10:1, 30:1, 100:1, respectively. Peptides were diluted to the working concentrations with R-10 medium and added at the beginning of the 4-hour incubation period. For the determination of maximal release, 1% Triton X-100 was added to separate wells. Plates were then centrifuged for 2 min to increase cellular contact before the 4-hour incubation period. After incubation, 75 μl supernatant from each well was collected and the amount of ^51Cr was counted using a TopCount Scintillation Counter. The degree of cell lysis was calculated using the formula below: [formula]

[3] = tested on: NK cell activity (killing of YAC-1 cells by CBA spleen cells); assay: NK cell activity (51Cr release); assay type: cell-based, mouse; conditions: YAC-1 targets, freshly isolated CBA spleen cells
Experimental: NK Cell Activity. YAC-1, a mouse lymphoma which was induced by inoculation of Moloney leukemia virus into a newborn A/Sn mouse was used as the NK cell target (ATCC TIB 160). Four thousand sodium chromate labeled YAC-1 cells were cultured with different concentrations of freshly isolated CBA spleen cells (effector to target ratios: 62.5:1, 125:1, 250:1, 500:1) in V-shaped bottom plates with RPMI-1640 containing 10% FBS for 4 h at 37° C., 5% CO2. The degree of cell lysis was quantified by the release of ^51Cr into the supernatants. After incubation, plates were centrifuged and 75 μl of supernatant was collected. The degree of cell lysis was measured using a TopCount Scintillation Counter. The degree of cell lysis was calculated using the formula below: [formula]

[4] = tested on: human peripheral blood lymphocytes; assay: Staining of PBLs with biotinylated peptide panel; assay type: binding; conditions: for binding to PBLs: 50 μg/ml biotinylated peptide; for binding on resting lymphocytes: majority of binding on macrophage/polymorphonuclear leukocytes population
Excerpt: (§1) In the next study, human peripheral blood lymphocytes were isolated and stained with the biotinylated peptide panel. […] Using human and murine cell lines, a spectrum of binding affinity was observed.

[5] = tested on: Jurkat cell line E6-1; assay: Binding of biotinylated peptide to cell lines; conditions: among human and murine cell lines
Excerpt: as §1

[6] = tested on: anti-H2b CTL effector population; assay: Binding of biotinylated peptide to CTL effectors; set-up: species or system mouse; conditions: cells activated (IL-2 receptor expression)
[7] = tested on: B6 hearts in CBA recipients; assay: Heterotopic heart transplantation; assay type: in vivo, mouse; conditions: 10 mg/kg/day, day 0 to day 10; untreated MST 7.5+/−1.1; p=0.0007
Experimental: The in vivo immunosuppressive activity of the peptides was evaluated in heterotopic heart transplantation in the model described by Ono and Lindsey, (J Thorac Cardiovasc Surg 1969, 7:225). CBA recipients of B6 hearts were treated 10 mg/kg/day of p15 from day 0 to day 10 after transplantation. Untreated recipients rejected the allografts between day 6 and 10 (MST=7.5+/−1.1 days). Treatment of recipients with p15 lead to a significant increase of graft survival (MST=14.4+/−1.5 days, p vs control=0.0007; Mann-Whitney Test).

3: Bt-SGSG-RENLRTALRY (Biotin-SGSGRENLRTALRY-OH) [compound 3]
inhibition of anti-CD3 stimulation at 5 μg/ml [1]: substantially less inhibition | inhibition of anti-CD3 stimulation at 50 μg/ml [1]: substantially complete inhibition | inhibition of anti-CD3 stimulation [1]: inhibit the anti-CD3 stimulation in a dose dependent manner

4: Bt-SGSG-RVNLRTALRY [compound 4]
inhibition of CTL activity [2]: inhibitory activity substantially greater than contol

16: Bi-SGSG-LRIALRYYWD [compound 16]
inhibition of CTL activity [2]: inhibitory activity substantially greater than contol | inhibition of anti-CD3 stimulation at 5 μg/ml [1]: substantially less inhibition | inhibition of anti-CD3 stimulation at 50 μg/ml [1]: substantially complete inhibition | inhibition of anti-CD3 stimulation [1]: inhibit the anti-CD3 stimulation in a dose dependent manner

17: Bt-SGSG-IALRYYWDS [compound 17]
inhibition of anti-CD3 stimulation at 5 μg/ml [1]: substantially less inhibition | inhibition of anti-CD3 stimulation at 50 μg/ml [1]: substantially complete inhibition | inhibition of anti-CD3 stimulation [1]: inhibit the anti-CD3 stimulation in a dose dependent manner

19: Bt-SGSG-LRYYWDSEA [compound 19]
inhibition of CTL activity [2]: inhibitory activity substantially greater than contol

20: Bt-SGSG-RIALRAAA [compound 20]
inhibition of CTL activity [2]: inhibitory activity substantially greater than contol

23: Bt-SGSG-NLRIALRY [compound 23]
inhibition of CTL activity [2]: inhibitory activity substantially greater than contol

27: Bt-SGSG-QTDRENLRIA [compound 27]
inhibition of CTL activity [2]: inhibitory activity substantially greater than contol | inhibition of anti-CD3 stimulation at 5 μg/ml [1]: significant levels of inhibition

34: Bt-SGSG-REALRIALRY [compound 34]
inhibition of CTL activity [2]: inhibitory activity substantially greater than contol

40: Bt-SGSG-RENLRIALRA [compound 40]
inhibition of anti-CD3 stimulation at 5 μg/ml [1]: substantially less inhibition | inhibition of anti-CD3 stimulation at 50 μg/ml [1]: substantially complete inhibition | inhibition of anti-CD3 stimulation [1]: inhibit the anti-CD3 stimulation in a dose dependent manner

41: Bt-SGSG-RVDLRTLRGY [compound 41]
inhibition of anti-CD3 stimulation at 5 μg/ml [1]: substantially less inhibition | inhibition of anti-CD3 stimulation at 50 μg/ml [1]: substantially complete inhibition | inhibition of anti-CD3 stimulation [1]: inhibit the anti-CD3 stimulation in a dose dependent manner

42: Bt-SGSG-RVSLRNLRGY [compound 42]
inhibition of anti-CD3 stimulation at 5 μg/ml [1]: significant levels of inhibition | inhibition of anti-CD3 stimulation at 50 μg/ml [1]: substantially complete inhibition | inhibition of anti-CD3 stimulation [1]: inhibit the anti-CD3 stimulation in a dose dependent manner

43: Bt-SGSG-RVNLRTLRRY; marked E in the table [compound 43]
inhibition of anti-CD3 stimulation at 5 μg/ml [1]: significant levels of inhibition | inhibition of anti-CD3 stimulation at 50 μg/ml [1]: substantially complete inhibition | inhibition of anti-CD3 stimulation [1]: inhibit the anti-CD3 stimulation in a dose dependent manner

Bt-SGSG-NLRIALRYYW; positions 77–85 terminating with tryptophan (Biotin-SGSGNLRIALRYYW-OH) [peptide 15]
CTL inhibition across different MHC combinations ([2]; H2k>H2b, H2d>H2b, H2k>H2d strain combinations): greater activity than B2702 monomer; also recorded: non-MHC restricted | percentage lysis in presence of peptide ([2]; lysis without peptide 42%): 7% | inhibition of CTL activity [2]: inhibited CTL activity; also recorded: highest degree of inhibition | inhibition of NK cell killing [3]: able to inhibit the killing of YAC-1 | inhibition of anti-CD3 stimulation at 5 μg/ml [1]: substantially less inhibition | inhibition of anti-CD3 stimulation at 50 μg/ml [1]: substantially complete inhibition | inhibition of anti-CD3 stimulation [1]: inhibit the anti-CD3 stimulation in a dose dependent manner | binding to PBLs [4]: bound to the PBLs | binding on resting lymphocytes [4]: little or no binding on resting lymphocytes | degree of binding to cell line [5]: highest degree of binding | binding to activated CTL effector cells [6]: binding of peptide 15 was observed | graft survival MST [7]: 14.4 ± 1.5 days

Bue-1: 2702 MAP; no sequence printed in the table (SGSGRENLRIALRY; not fully specified; also: MAP construct)
inhibition of anti-CD3 stimulation at 5 μg/ml [1]: substantially less inhibition | inhibition of anti-CD3 stimulation at 50 μg/ml [1]: substantially complete inhibition | inhibition of anti-CD3 stimulation [1]: inhibit the anti-CD3 stimulation in a dose dependent manner

Bue-3: ENLRIALR
inhibition of anti-CD3 stimulation at 5 μg/ml [1]: substantially less inhibition | inhibition of anti-CD3 stimulation at 50 μg/ml [1]: substantially complete inhibition | inhibition of anti-CD3 stimulation [1]: inhibit the anti-CD3 stimulation in a dose dependent manner

Bue-4: ENLRIAL
inhibition of anti-CD3 stimulation at 5 μg/ml [1]: substantially less inhibition | inhibition of anti-CD3 stimulation at 50 μg/ml [1]: substantially complete inhibition | inhibition of anti-CD3 stimulation [1]: inhibit the anti-CD3 stimulation in a dose dependent manner

Bue-5: NLRIAL
inhibition of anti-CD3 stimulation at 5 μg/ml [1]: significant levels of inhibition | inhibition of anti-CD3 stimulation at 50 μg/ml [1]: substantially complete inhibition | inhibition of anti-CD3 stimulation [1]: inhibit the anti-CD3 stimulation in a dose dependent manner

Woo-2: Bt-SGSG-RENLRIALRY (Biotin-SGSGRENLRIALRY-OH)
inhibition of anti-CD3 stimulation at 5 μg/ml [1]: substantially less inhibition | inhibition of anti-CD3 stimulation at 50 μg/ml [1]: substantially complete inhibition | inhibition of anti-CD3 stimulation [1]: inhibit the anti-CD3 stimulation in a dose dependent manner

peptide 2: Bi-SGSG-RVNLRIALRY (Biotin-SGSGRVNLRIALRY-OH)
inhibition of CTL activity [2]: inhibited CTL activity | inhibition of anti-CD3 stimulation at 5 μg/ml [1]: substantially less inhibition | inhibition of anti-CD3 stimulation at 50 μg/ml [1]: substantially complete inhibition | inhibition of anti-CD3 stimulation [1]: inhibit the anti-CD3 stimulation in a dose dependent manner | binding to PBLs [4]: bound to the PBLs | binding on resting lymphocytes [4]: little or no binding on resting lymphocytes
